According to US4055639A, “Derivatives of N-(2,2-dichlorovinyl) salicylamide and use thereof as bactericides, fungicides and algicides for industry” (Nippon Kayaku Kabushiki Kaisha, priority 1975, dated 1977):
In brackets after ≈: the same amount, converted by molar mass. Structures can show the parent of a compound that is named as a salt. Where two headings read alike, the source gives them in different places.

Experiments:
[1] = tested on: Aspergillus niger; assay: minimum inhibitory concentration, potato-dextrose agar dilution method; assay type: cell-based; conditions: read-out: Minimum inhibitory amount (minimum inhibitory concentration, 100% control)
From the text: (§1) Bactericidal activity and fungicidal activity of the active compounds of the present invention were examined by potato-dextrose agar dilution method, or [2] glucose bouillon medium dilution method. The results are shown in Table 2 below as the minimum inhibitory concentration (the minimum concentration of active compound found to produce 100% control of the test bacteria and fungi).

[2] = tested on: Cladosporium harbarum; assay: as above; assay type: cell-based; conditions: read-out: Minimum inhibitory amount (minimum inhibitory concentration, 100% control)
From the text: as §1

[3] = tested on: Penicillium citrinum; assay: as above; assay type: cell-based; conditions: read-out: Minimum inhibitory amount (minimum inhibitory concentration, 100% control)
From the text: as §1

[4] = tested on: Bacillus subtilis; assay: minimum inhibitory concentration, glucose bouillon medium dilution method; assay type: cell-based; conditions: read-out: Minimum inhibitory amount (minimum inhibitory concentration, 100% control)
From the text: as §1

[5] = tested on: Escherichia coli; assay: as above; assay type: cell-based; conditions: read-out: Minimum inhibitory amount (minimum inhibitory concentration, 100% control)
From the text: as §1

[6] = tested on: Staphylococcus aureus; assay: as above; assay type: cell-based; conditions: read-out: Minimum inhibitory amount (minimum inhibitory concentration, 100% control)
From the text: as §1

[7] = tested on: fungi; assay: degree of propagation on slime test boards in Waxman's liquid medium; design: key: -: no propagation; +: the area of propagation is 1-25% on the slime test boards.; ++: the area of propagation is 26-50% on the slime test boards.; +++: the area of propagation is 51-75% on the slime test boards.; ++++: the area of propagation is 76-100% on the slime test boards; conditions: 0.02 part active compound (10% water soluble concentrate) in 100 parts medium, same method
Procedure: (§2) Zero point zero two (0.02) part of active compounds in the form of 10% water soluble concentrate which was prepared by Example 11 was added into 100 parts of Waxman's liquid medium. Pieces of wood and iron (hereafter referred to as the slime test boards) were soaked into the Waxman's liquid medium. The bacteria which were gathered from circular water system were inoculated upon the Waxman's liquid medim and incubated at 27°-34° C by shaking culture for 2 days. The degree of propagation of the bacteria on the slime test boards was examined.
(§3) The growth-inhibiting activity of active compounds against the fungi and the green algae was also examined by the same method as mentioned above.
(§4) The degree of propagation of the bacteria, fungi or green algae on the slime test boards is difined in term of the following symbols.

[8] = tested on: green algae; assay: as above; design: key: -: no propagation; +: the area of propagation is 1-25% on the slime test boards.; ++: the area of propagation is 26-50% on the slime test boards.; +++: the area of propagation is 51-75% on the slime test boards.; ++++: the area of propagation is 76-100% on the slime test boards; conditions: 0.02 part active compound (10% water soluble concentrate) in 100 parts medium, same method
Procedure: as §2, §3, §4

[9] = tested on: Bacteria, fungi and slime; assay: inhibition of bacteria, fungi and slime by water soluble concentrate in circular water systems, pastes or binding agents; conditions: 10-20 ppm in circular water systems; 0.01-0.1% in pastes or binding agents
Procedure: A water soluble concentrate was prepared as follows:
The above ingredients were mixed. A water soluble concentrate was obtained. A water soluble concentrate containing Compound No. 1, No. 2, No. 5, No. 8, No. 16, No. 19 or No. 22 was prepared by the same method as mentioned above.
Before application, the concentrate was diluted 500-1000 times with water and sprayed on the inside of cotes to prevent the growth of bacteria and fungi.
The solution was added to water in circular water systems to inhibit the growth of slime. The concentration of Compound No. 6 in the water was 10-20 ppm.
An amount of 0.01-0.1% of Compound No. 6 as the solution was added to pastes or binding agents to prevent rottenness of them.

[10] = Method (1) potato-dextrose agar dilution
[11] = Cladosporium harbarum, Method (1) potato-dextrose agar dilution
[12] = Method (2) glucose bouillon medium dilution

SMILES | MIC [1, 10] | MIC [2, 11] | MIC [3, 10] | MIC [4, 12] | MIC [5, 12] | MIC [6, 12] | Degree of propagation [7] | Degree of propagation [8] | MIC [1] | MIC ([2]; Cladosporium) | MIC [3] | MIC [4] | MIC [5] | MIC [6] | inhibition of bacteria, fungi and slime [9]
O=C(NC=C(Cl)Cl)c1cc(Cl)ccc1O [Compound No. 1, N-(2',2'-dichlorovinyl)-5-chlorosalicylamide] | 10 µg/mL (≈ 37.5 µM) | 5 µg/mL (≈ 18.8 µM) | 10 µg/mL (≈ 37.5 µM) | 5 µg/mL (≈ 18.8 µM) | 60 µg/mL (≈ 225 µM) | 5 µg/mL (≈ 18.8 µM) | - | - |  |  |  |  |  |  | 
CC(=O)Oc1ccccc1C(=O)NC=C(Cl)Cl [Compound No. 2, O-acetyl-N-(2,2-dichlorovinyl) salicylamide] | 10 µg/mL (≈ 36.5 µM) | 5 µg/mL (≈ 18.2 µM) | 10 µg/mL (≈ 36.5 µM) | 2.5 µg/mL (≈ 9.12 µM) | 40 µg/mL (≈ 146 µM) | 5 µg/mL (≈ 18.2 µM) | - | - |  |  |  |  |  |  | 
COC(=O)Oc1ccccc1C(=O)NC=C(Cl)Cl [Compound No. 3, O-methoxycarbonyl-N-(2,2-dichlorovinyl) salicylamide] | 10 µg/mL (≈ 34.5 µM) | 10 µg/mL (≈ 34.5 µM) | 20 µg/mL (≈ 68.9 µM) | 10 µg/mL (≈ 34.5 µM) | 60 µg/mL (≈ 207 µM) | 10 µg/mL (≈ 34.5 µM) |  |  |  |  |  |  |  |  | 
CNC(=O)Oc1ccccc1C(=O)NC=C(Cl)Cl [Compound No. 4, O-(N'-methylcarbamoyl)-N-(2,2-dichlorovinyl) salicylamide] |  |  |  |  |  |  |  |  | 20 µg/mL (≈ 69.2 µM) | 5 µg/mL (≈ 17.3 µM) | 10 µg/mL (≈ 34.6 µM) | 10 µg/mL (≈ 34.6 µM) | 60 µg/mL (≈ 208 µM) | 10 µg/mL (≈ 34.6 µM) | 
CC(=O)Oc1ccc(Cl)cc1C(=O)NC=C(Cl)Cl [Compound No. 5, O-acetyl-N-(2',2'-dichlorovinyl)-5-chlorosalicylamide] | 2.5 µg/mL (≈ 8.1 µM) | 2.5 µg/mL (≈ 8.1 µM) | 2.5 µg/mL (≈ 8.1 µM) | 1.3 µg/mL (≈ 4.21 µM) | 10 µg/mL (≈ 32.4 µM) | 1.3 µg/mL (≈ 4.21 µM) | - | - |  |  |  |  |  |  | 
O=C(NC=C(Cl)Cl)c1cc(Cl)ccc1O [Compound No. 6, sodium salt of N-(2',2'-dichlorovinyl)-5-chlorosalicylamide] |  |  |  |  |  |  |  |  |  |  |  |  |  |  | inhibited for a long time
CCC(=O)Oc1ccccc1C(=O)NC=C(Cl)Cl [Compound No. 15] | 10 µg/mL (≈ 34.7 µM) | 5 µg/mL (≈ 17.4 µM) | 10 µg/mL (≈ 34.7 µM) | 2.5 µg/mL (≈ 8.68 µM) | 40 µg/mL (≈ 139 µM) | 5 µg/mL (≈ 17.4 µM) | - | - |  |  |  |  |  |  | 
Cc1cccc(C(=O)NC=C(Cl)Cl)c1O [compound 12] | 20 µg/mL (≈ 81.3 µM) | 20 µg/mL (≈ 81.3 µM) | 20 µg/mL (≈ 81.3 µM) | 10 µg/mL (≈ 40.6 µM) | 80 µg/mL (≈ 325 µM) | 10 µg/mL (≈ 40.6 µM) |  |  |  |  |  |  |  |  | 
O=C(NC=C(Cl)Cl)c1cc(Br)ccc1O [compound 13] | 20 µg/mL (≈ 64.3 µM) | 10 µg/mL (≈ 32.2 µM) | 10 µg/mL (≈ 32.2 µM) | 5 µg/mL (≈ 16.1 µM) | 60 µg/mL (≈ 193 µM) | 5 µg/mL (≈ 16.1 µM) |  |  |  |  |  |  |  |  | 
O=C(NC=C(Cl)Cl)c1cccc([N+](=O)[O-])c1O [compound 14] | 10 µg/mL (≈ 36.1 µM) | 10 µg/mL (≈ 36.1 µM) | 10 µg/mL (≈ 36.1 µM) | 5 µg/mL (≈ 18 µM) | 60 µg/mL (≈ 217 µM) | 5 µg/mL (≈ 18 µM) |  |  |  |  |  |  |  |  | 
CCCC(=O)Oc1ccccc1C(=O)NC=C(Cl)Cl [compound 16] | 10 µg/mL (≈ 33.1 µM) | 5 µg/mL (≈ 16.5 µM) | 10 µg/mL (≈ 33.1 µM) | 5 µg/mL (≈ 16.5 µM) | 60 µg/mL (≈ 199 µM) | 10 µg/mL (≈ 33.1 µM) | - |  |  |  |  |  |  |  | 
CC(C)C(=O)Oc1ccccc1C(=O)NC=C(Cl)Cl [compound 17] | 10 µg/mL (≈ 33.1 µM) | 10 µg/mL (≈ 33.1 µM) | 10 µg/mL (≈ 33.1 µM) | 5 µg/mL (≈ 16.5 µM) | 40 µg/mL (≈ 132 µM) | 5 µg/mL (≈ 16.5 µM) |  |  |  |  |  |  |  |  | 
O=C(CCl)Oc1ccccc1C(=O)NC=C(Cl)Cl [compound 19] | 10 µg/mL (≈ 32.4 µM) | 5 µg/mL (≈ 16.2 µM) | 10 µg/mL (≈ 32.4 µM) | 5 µg/mL (≈ 16.2 µM) | 40 µg/mL (≈ 130 µM) | 5 µg/mL (≈ 16.2 µM) | - | - |  |  |  |  |  |  | 
O=C(NC=C(Cl)Cl)c1ccccc1OC(=O)C(Cl)Cl [compound 20] | 10 µg/mL (≈ 29.2 µM) | 10 µg/mL (≈ 29.2 µM) | 10 µg/mL (≈ 29.2 µM) | 5 µg/mL (≈ 14.6 µM) | 60 µg/mL (≈ 175 µM) | 10 µg/mL (≈ 29.2 µM) |  |  |  |  |  |  |  |  | 
CCOC(=O)Oc1ccccc1C(=O)NC=C(Cl)Cl [compound 22] | 10 µg/mL (≈ 32.9 µM) | 10 µg/mL (≈ 32.9 µM) | 10 µg/mL (≈ 32.9 µM) | 5 µg/mL (≈ 16.4 µM) | 40 µg/mL (≈ 132 µM) | 2.5 µg/mL (≈ 8.22 µM) | + (the area of propagation is 1-25% on the slime test boards.) |  |  |  |  |  |  |  | 
CC(C)COC(=O)Oc1ccccc1C(=O)NC=C(Cl)Cl [compound 23] | 10 µg/mL (≈ 30.1 µM) | 10 µg/mL (≈ 30.1 µM) | 10 µg/mL (≈ 30.1 µM) | 5 µg/mL (≈ 15.1 µM) | 40 µg/mL (≈ 120 µM) | 5 µg/mL (≈ 15.1 µM) |  |  |  |  |  |  |  |  | 
COc1ccccc1C(=O)NC=C(Cl)Cl [compound 24] | 20 µg/mL (≈ 81.3 µM) | 10 µg/mL (≈ 40.6 µM) | 20 µg/mL (≈ 81.3 µM) | 10 µg/mL (≈ 40.6 µM) | 60 µg/mL (≈ 244 µM) | 10 µg/mL (≈ 40.6 µM) |  |  |  |  |  |  |  |  | 
O=C(NC=C(Cl)Cl)c1cc(Cl)cc(Cl)c1O [compound 26] | 10 µg/mL (≈ 33.2 µM) | 5 µg/mL (≈ 16.6 µM) | 10 µg/mL (≈ 33.2 µM) | 5 µg/mL (≈ 16.6 µM) | 40 µg/mL (≈ 133 µM) | 5 µg/mL (≈ 16.6 µM) |  |  |  |  |  |  |  |  | 
CC(=O)Oc1c(Cl)cc(Cl)cc1C(=O)NC=C(Cl)Cl [compound 27] | 10 µg/mL (≈ 29.2 µM) | 5 µg/mL (≈ 14.6 µM) | 5 µg/mL (≈ 14.6 µM) | 2.5 µg/mL (≈ 7.29 µM) | 40 µg/mL (≈ 117 µM) | 2.5 µg/mL (≈ 7.29 µM) |  |  |  |  |  |  |  |  | 
